Laboratory results published in patent publication US9695155B2, “Herbicidal substituted pyrimidinyloxy benzene compounds” (E. I. DU PONT DE NEMOURS AND COMPANY, priority 2013, dated 2017).

Experiments:
chamomile = test: Test D preemergence; type: in vivo, Matricaria inodora; settings: Tripleurospermum inodorum, pre-emergence
In short: (§1)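 Values are 0–100 visual control ratings (0 none, 100 complete) given 7–21 days after application. Soil for preemergence was silt loam; postemergence plants stood 2–18 cm tall.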

spring barley = test: Test D preemergence; type: in vivo, Hordeum vulgare; settings: Hordeum vulgare, pre-emergence
In short: as §1

spring wheat [1] = test: Test D preemergence; type: in vivo, Triticum aestivum; settings: Triticum aestivum, pre-emergence
In short: as §1

winter wheat [2] = test: Test D preemergence; type: in vivo, Triticum aestivum; settings: Triticum aestivum, pre-emergence
In short: as §1

wild oat = test: Test D preemergence; type: in vivo, Avena fatua; settings: Avena fatua, pre-emergence
In short: as §1

deadnettle = test: Test D postemergence; type: in vivo, Lamium amplexicaule; settings: Lamium amplexicaule, post-emergence
In short: as §1

spring wheat [3] = test: Test D postemergence; type: in vivo, Triticum aestivum; settings: Triticum aestivum, post-emergence
In short: as §1

winter wheat [4] = test: Test D postemergence; type: in vivo, Triticum aestivum; settings: Triticum aestivum, post-emergence
In short: as §1

wild buckwheat = test: Test D postemergence; type: in vivo, Polygonum convolvulus; settings: Fallopia convolvulus, post-emergence, Postemergence, scale 0 to 100 (0 no effect, 100 complete control), read-out: Plant response rating, Buckwheat, Wild
In short: as §1

cocklebur = test: Test E preemergence; type: in vivo, Xanthium strumarium; settings: 125 g ai/ha, scale 0 to 100, 0 no effect, 100 complete control
In short: (§2)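 Test chemicals formulated in a non-phytotoxic solvent mixture containing a surfactant were applied preemergence to seeds in silt loam soil or postemergence to plants at the 1- to 4-leaf stage in potting mix. After 14 to 21 days in a greenhouse, injury was visually rated against controls on a 0-100 scale (0 = no effect, 100 = complete control).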

arrowleaf sida = test: Test E postemergence; type: in vivo, Sida rhombifolia; settings: Sida rhombifolia, post-emergence, read-out: Plant response rating, Arrowleaf Sida
In short: as §2

Italian ryegrass = test: Test E postemergence; type: in vivo, Lolium multiflorum; settings: Lolium multiflorum, post-emergence, read-out: Plant response rating, Ryegrass, Italian
In short: as §2

[5] = Postemergence, 31 g ai/ha, scale 0 to 100
[6] = Postemergence, 62 g ai/ha, scale 0 to 100
[7] = Postemergence, 125 g ai/ha, scale 0 to 100
[8] = postemergence, 8 g ai/ha, scale 0 to 100, 0 no effect, 100 complete control
[9] = postemergence, 16 g ai/ha, scale 0 to 100, 0 no effect, 100 complete control

Clc1cnc(Oc2ccccc2-n2cc(Br)cn2)nc1 [Compound 7, 2-[2-(4-bromo-1H-pyrazol-1-yl)phenoxy]-5-chloropyrimidine]
0: Plant response rating, Cocklebur (cocklebur)
25%: pest or weed control at 250 g/ha (chamomile; 250 g ai/ha, scale 0-100, read-out: Plant response rating, Chamomile)
80%: pest or weed control at 31 g/ha (arrowleaf sida; [5])
20%: pest or weed control at 125 g/ha (chamomile; 125 g ai/ha, scale 0-100, read-out: Plant response rating, Chamomile) | pest or weed control at 62 g/ha (deadnettle; 62 g ai/ha, scale 0 to 100 (0 no effect, 100 complete control), read-out: Plant response rating, Deadnettle) | pest or weed control at 16 g/ha (wild buckwheat; 16 g ai/ha)
0%: pest or weed control at 16 g/ha (chamomile; 16 g ai/ha, scale 0 (no effect) to 100 (complete control), read-out: Plant response rating, Chamomile) | pest or weed control at 31 g/ha (chamomile; 31 g ai/ha, scale 0-100, read-out: Plant response rating, Chamomile) | pest or weed control at 62 g/ha (chamomile; 62 g ai/ha, scale 0-100, read-out: Plant response rating, Chamomile) | plant injury at 16 g/ha (spring barley; 16 g ai/ha, scale 0 (no effect) to 100 (complete control), read-out: Plant response rating, Barley, Spring) | plant injury at 31 g/ha (spring barley; 31 g ai/ha, scale 0-100, read-out: Plant response rating, Barley, Spring) | plant injury at 62 g/ha (spring barley; 62 g ai/ha, scale 0-100, read-out: Plant response rating, Barley, Spring) | plant injury at 125 g/ha (spring barley; 125 g ai/ha, scale 0-100, read-out: Plant response rating, Barley, Spring) | plant injury at 250 g/ha (spring barley; 250 g ai/ha, scale 0-100, read-out: Plant response rating, Barley, Spring) | plant injury at 16 g/ha (spring wheat [1]; 16 g ai/ha, scale 0 (no effect) to 100 (complete control), read-out: Plant response rating, Wheat, Spring) | plant injury at 31 g/ha (spring wheat [1]; 31 g ai/ha, scale 0 (no effect) to 100 (complete control), read-out: Plant response rating, Wheat, Spring) | plant injury at 62 g/ha (spring wheat [1]; 62 g ai/ha, scale 0-100, read-out: Plant response rating, Wheat, Spring) | plant injury at 125 g/ha (spring wheat [1]; 125 g ai/ha, scale 0-100, read-out: Plant response rating, Wheat, Spring) | plant injury at 250 g/ha (spring wheat [1]; 250 g ai/ha, scale 0-100, read-out: Plant response rating, Wheat, Spring) | plant injury at 16 g/ha (winter wheat [2]; 16 g ai/ha, scale 0 (no effect) to 100 (complete control), read-out: Plant response rating, Wheat, Winter) | plant injury at 31 g/ha (winter wheat [2]; 31 g ai/ha, scale 0 (no effect) to 100 (complete control), read-out: Plant response rating, Wheat, Winter) | plant injury at 62 g/ha (winter wheat [2]; 62 g ai/ha, scale 0-100, read-out: Plant response rating, Wheat, Winter) | pest or weed control at 16 g/ha (wild oat; 16 g ai/ha, scale 0 (no effect) to 100 (complete control), read-out: Plant response rating, Oat, Wild) | pest or weed control at 31 g/ha (wild oat; 31 g ai/ha, scale 0-100, read-out: Plant response rating, Oat, Wild) | pest or weed control at 62 g/ha (wild oat; 62 g ai/ha, scale 0-100, read-out: Plant response rating, Oat, Wild) | plant injury at 16 g/ha (spring wheat [3]; 16 g ai/ha, scale 0-100, read-out: Plant response rating, Wheat, Spring) | plant injury at 31 g/ha (spring wheat [3]; 31 g ai/ha, scale 0 to 100 (0 no effect, 100 complete control), read-out: Plant response rating, Wheat, Spring) | plant injury at 62 g/ha (spring wheat [3]; 62 g ai/ha, scale 0 to 100 (0 no effect, 100 complete control), read-out: Plant response rating, Wheat, Spring) | plant injury at 16 g/ha (winter wheat [4]; 16 g ai/ha, scale 0-100, read-out: Plant response rating, Wheat, Winter) | plant injury at 31 g/ha (winter wheat [4]; 31 g ai/ha, scale 0 to 100 (0 no effect, 100 complete control), read-out: Plant response rating, Wheat, Winter) | plant injury at 62 g/ha (winter wheat [4]; 62 g ai/ha, scale 0 to 100 (0 no effect, 100 complete control), read-out: Plant response rating, Wheat, Winter) | pest or weed control at 31 g/ha (Italian ryegrass; [5]) | pest or weed control at 62 g/ha (Italian ryegrass; [6]) | pest or weed control at 125 g/ha (Italian ryegrass; [7]) | pest or weed control at 8 g/ha (Italian ryegrass; [8]) | pest or weed control at 16 g/ha (Italian ryegrass; [9])
75%: pest or weed control at 16 g/ha (arrowleaf sida; [9])
90%: pest or weed control at 62 g/ha (arrowleaf sida; [6])
100%: pest or weed control at 250 g/ha (wild buckwheat; 250 g ai/ha)
30%: pest or weed control at 125 g/ha (deadnettle; 125 g ai/ha, scale 0 to 100 (0 no effect, 100 complete control), read-out: Plant response rating, Deadnettle) | pest or weed control at 31 g/ha (wild buckwheat; 31 g ai/ha)
10%: plant injury at 250 g/ha (winter wheat [2]; 250 g ai/ha, scale 0-100, read-out: Plant response rating, Wheat, Winter) | pest or weed control at 125 g/ha (wild oat; 125 g ai/ha, scale 0-100, read-out: Plant response rating, Oat, Wild) | pest or weed control at 250 g/ha (wild oat; 250 g ai/ha, scale 0-100, read-out: Plant response rating, Oat, Wild) | pest or weed control at 16 g/ha (deadnettle; 16 g ai/ha, scale 0-100, read-out: Plant response rating, Deadnettle) | pest or weed control at 31 g/ha (deadnettle; 31 g ai/ha, scale 0 to 100 (0 no effect, 100 complete control), read-out: Plant response rating, Deadnettle) | plant injury at 125 g/ha (spring wheat [3]; 125 g ai/ha, scale 0 to 100 (0 no effect, 100 complete control), read-out: Plant response rating, Wheat, Spring) | plant injury at 250 g/ha (spring wheat [3]; 250 g ai/ha, scale 0 to 100 (0 no effect, 100 complete control), read-out: Plant response rating, Wheat, Spring) | plant injury at 125 g/ha (winter wheat [4]; 125 g ai/ha, scale 0 to 100 (0 no effect, 100 complete control), read-out: Plant response rating, Wheat, Winter) | plant injury at 250 g/ha (winter wheat [4]; 250 g ai/ha, scale 0 to 100 (0 no effect, 100 complete control), read-out: Plant response rating, Wheat, Winter)
85%: pest or weed control at 125 g/ha (wild buckwheat; 125 g ai/ha)
40%: pest or weed control at 250 g/ha (deadnettle; 250 g ai/ha, scale 0 to 100 (0 no effect, 100 complete control), read-out: Plant response rating, Deadnettle)
5%: plant injury at 125 g/ha (winter wheat [2]; 125 g ai/ha, scale 0-100, read-out: Plant response rating, Wheat, Winter)
65%: pest or weed control at 8 g/ha (arrowleaf sida; [8])
60%: pest or weed control at 62 g/ha (wild buckwheat; 62 g ai/ha)
95%: pest or weed control at 125 g/ha (arrowleaf sida; [7])
